Experimental data from article PMC9221290, “Alkaloids of Dicranostigma franchetianum (Papaveraceae) and Berberine Derivatives as a New Class of Antimycobacterial Agents” (Biomolecules, 2022).
Read-outs that look alike come from different tables or passages of the source.

Legend:
[1] = test system: Mtb H37Ra ITM-M006710 (ATCC 9431); test: Antimycobacterial microdilution broth assay (resazurin), Mtb H37Ra; assay type: cell-based, Mycobacterium tuberculosis; conditions: Mycobacterium tuberculosis
[2] = test system: Mycobacterium kansasii DSM 44162 (ATCC 12478); test: Antimycobacterial microdilution broth assay (resazurin), M. kansasii; assay type: cell-based; conditions: Mycobacterium kansasii, 96 h, read-out: MIC M. kansasii, microdilution broth, resazurin, 96 h
HepG2 cells [3] = test: cells; conditions: Homo sapiens, HepG2, 24 h
HepG2 cells [4] = test system: HepG2 cells
in vitro = conditions: human, % of cell viability compared to control; for viability at 1 µM: HepG2, 1 µM; for viability at 5 µM: HepG2, 5 µM; for viability at 10 µM: HepG2, 10 µM; for viability at 25 µM: HepG2, 25 µM; for viability at 50 µM: HepG2, 50 µM; for viability at 75 µM: HepG2, 75 µM; for viability at 100 µM: HepG2, 100 µM; for viability at 20 µM: HepG2, 20 µM; for viability at 40 µM: HepG2, 40 µM; for viability at 0.1 µM: HepG2, 0.1 µM; for viability at 30 µM: HepG2, 30 µM
[5] = test system: Mycolicibacterium smegmatis DSM 43465 (ATCC 607); test: Antimycobacterial microdilution broth assay (resazurin), M. smegmatis; assay type: cell-based; conditions: Mycolicibacterium smegmatis, 48 h, read-out: MIC M. smegmatis, microdilution broth, resazurin, 48 h
[6] = test system: Mycolicibacterium aurum DSM 43999 (ATCC 23366); test: Antimycobacterial microdilution broth assay (resazurin), M. aurum; assay type: cell-based; conditions: Mycolicibacterium aurum, 72 h, read-out: MIC M. aurum, microdilution broth, resazurin, 72 h
[7] = test system: Mycobacterium avium DSM 44156 (ATCC 25291); test: Antimycobacterial microdilution broth assay (resazurin), M. avium; assay type: cell-based; conditions: Mycobacterium avium, 96 h, read-out: MIC M. avium, microdilution broth, resazurin, 96 h
[8] = 120 h, microdilution broth, resazurin, 120 h, read-out: MIC Mtb H37Ra
[9] = calculated from MIC (µg/mL) and MW, read-out: MIC Mtb H37Ra
[10] = read-out: HepG2 IC50, 1. measurement, MTT, 24 h, single measurement 1
[11] = read-out: HepG2 IC50, 2. measurement, MTT, 24 h, single measurement 2
[12] = read-out: HepG2 IC50, 3. measurement, MTT, 24 h, single measurement 3
[13] = read-out: HepG2 IC50, MTT, 24 h incubation

| Compound | MIC [2] | IC50 (HepG2 cells [3]; [10]) | IC50 (HepG2 cells [3]; [11]) | IC50 (HepG2 cells [3]; [12]) | IC50 (HepG2 cells [3]; [13]) | SI (selectivity index) (HepG2 cells [4]) | viability at 1 µM (in vitro; 1. measurement) | viability at 5 µM (in vitro; 1. measurement) | viability at 10 µM (in vitro; 1. measurement) | viability at 1 µM (in vitro; 2. measurement) | viability at 5 µM (in vitro; 2. measurement) | viability at 10 µM (in vitro; 2. measurement) | viability at 50 µM (in vitro; 2. measurement) | viability at 1 µM (in vitro; 3. measurement) | viability at 5 µM (in vitro; 3. measurement) | viability at 10 µM (in vitro; 3. measurement) | viability at 50 µM (in vitro; 3. measurement) | MIC [5] | MIC [6] | MIC [7] | other results |
| --- | --- | --- | --- | --- | --- | --- | --- | --- | --- | --- | --- | --- | --- | --- | --- | --- | --- | --- | --- | --- | --- |
| COc1ccc2cc3[n+](cc2c1OCc1ccc(Br)cc1)CCc1cc2c(cc1-3)OCO2 [16g, 9-O-(4-brombenzyl)berberine chloride] | 0.98 µg/mL | 19.2 µM | 26.9 µM | 18.2 µM | 21.4 ± 4.8 µM | 2.89 | 101% | 70.1% | 53.9% | 96.5% | 76.3% | 59.4% | 47.8% | 85% | 72.1% | 56.6% | 45.5% | 0.98 µg/mL | 3.91 µg/mL | 1.98 µg/mL | MIC [1, 8]: 3.91 µg/mL; MIC [1, 9]: 7.42 µM; viability at 25 µM (in vitro; 1. measurement): 46.7%; viability at 50 µM (in vitro; 1. measurement): 42.5%; viability at 75 µM (in vitro; 1. measurement): 25.8%; viability at 100 µM (in vitro; 1. measurement): 17.9%; viability at 25 µM (in vitro; 2. measurement): 44.7%; viability at 75 µM (in vitro; 2. measurement): 40.7%; viability at 100 µM (in vitro; 2. measurement): 23.9%; viability at 25 µM (in vitro; 3. measurement): 45.8%; viability at 75 µM (in vitro; 3. measurement): 26%; viability at 100 µM (in vitro; 3. measurement): 14% |
| COc1ccc2cc3[n+](cc2c1OCc1cccc(C)c1)CCc1cc2c(cc1-3)OCO2 [16c, 9-O-(3-methylbenzyl)berberine chloride] | 6.25 µg/mL | 55.6 µM | 43.4 µM | 42.3 µM | 47.1 ± 7.38 µM | 3.49 | 87.2% | 88.3% | 74% | 88.3% | 78.7% | 68.3% | 47.9% | 99.8% | 78.9% | 64.9% | 47.3% | 1.56 µg/mL | 3.12 µg/mL | 6.25 µg/mL | MIC [1, 8]: 6.25 µg/mL; MIC [1, 9]: 13.5 µM; viability at 20 µM (in vitro; 1. measurement): 58.4%; viability at 40 µM (in vitro; 1. measurement): 54.5%; viability at 60 µM (in vitro; 1. measurement, HepG2, 60 µM): 53.3%; viability at 80 µM (in vitro; 1. measurement, HepG2, 80 µM): 49.5%; viability at 100 µM (in vitro; 1. measurement): 35.1%; viability at 25 µM (in vitro; 2. measurement): 52.9%; viability at 75 µM (in vitro; 2. measurement): 45.7%; viability at 100 µM (in vitro; 2. measurement): 39%; viability at 0.1 µM (in vitro; 3. measurement): 102%; viability at 25 µM (in vitro; 3. measurement): 48.6%; viability at 75 µM (in vitro; 3. measurement): 46.1%; viability at 100 µM (in vitro; 3. measurement): 42.5% |
| COc1ccc2cc3[n+](cc2c1OCc1ccc(Cl)c(Cl)c1)CCc1cc2c(cc1-3)OCO2 [16k, 9-O-(3,4-dichlorbenzyl)berberine chloride] | 6.25 µg/mL | 13.3 µM | 14.8 µM | 9.9 µM | 12.7 ± 2.51 µM | 4.55 | 97.6% | 66.5% | 50.4% | 97.8% | 79.2% | 46.7% | 35% | 85.7% | 67% | 46.9% | 11.7% | 1.56 µg/mL | 1.56 µg/mL | 1.56 µg/mL | MIC [1, 8]: 1.56 µg/mL; MIC [1, 9]: 2.78 µM; viability at 25 µM (in vitro; 1. measurement): 43.4%; viability at 50 µM (in vitro; 1. measurement): 35%; viability at 75 µM (in vitro; 1. measurement): 13.2%; viability at 100 µM (in vitro; 1. measurement): 2.33%; viability at 25 µM (in vitro; 2. measurement): 35.5%; viability at 75 µM (in vitro; 2. measurement): 28.2%; viability at 100 µM (in vitro; 2. measurement): 4.02%; viability at 25 µM (in vitro; 3. measurement): 43.6%; viability at 75 µM (in vitro; 3. measurement): 0.77%; viability at 100 µM (in vitro; 3. measurement): 0.81% |
| COc1ccc2cc3[n+](cc2c1OCc1cccc(Cl)c1)CCc1cc2c(cc1-3)OCO2 [16h, 9-O-(3-chlorbenzyl)berberine chloride] | 3.12 µg/mL | 8.53 µM | 11.9 µM | 7.91 µM | 9.44 ± 2.13 µM | 1.59 | 65.4% | 66.5% | 51.7% | 94.6% | 67.4% | 54.2% | 12.8% | 87.2% | 54.4% | 47.8% | 15.6% | 0.78 µg/mL | 1.56 µg/mL | 1.56 µg/mL | MIC [1, 8]: 3.12 µg/mL; MIC [1, 9]: 5.93 µM; viability at 25 µM (in vitro; 1. measurement): 44.2%; viability at 50 µM (in vitro; 1. measurement): 36.5%; viability at 75 µM (in vitro; 1. measurement): 23.8%; viability at 100 µM (in vitro; 1. measurement): 15.7%; viability at 25 µM (in vitro; 2. measurement): 44.6%; viability at 75 µM (in vitro; 2. measurement): 1.14%; viability at 100 µM (in vitro; 2. measurement): 0.68%; viability at 25 µM (in vitro; 3. measurement): 36%; viability at 75 µM (in vitro; 3. measurement): 2.92%; viability at 100 µM (in vitro; 3. measurement): 0.98% |
| COc1ccc2cc3[n+](cc2c1OCc1ccc(C)cc1)CCc1cc2c(cc1-3)OCO2 [16d, 9-O-(4-methylbenzyl)berberine chloride] | 3.91 µg/mL | 19.3 µM | 16 µM | 12.3 µM | 15.9 ± 3.48 µM | 2.54 | 96.1% | 70% | 55.6% | 92.6% | 64.6% | 48% | 41.4% | 76.5% | 68.2% | 52% | 45.2% | 1.56 µg/mL | 6.25 µg/mL | 1.98 µg/mL | MIC ([1]; 120 h, read-out: MIC Mtb H37Ra, microdilution broth, resazurin, 120 h): 3.91 µg/mL; MIC ([1]; read-out: MIC Mtb H37Ra (µM), calculated from MIC (µg/mL) and MW): 8.46 µM; viability at 25 µM (in vitro; 1. measurement): 48%; viability at 50 µM (in vitro; 1. measurement): 43.7%; viability at 75 µM (in vitro; 1. measurement): 32.6%; viability at 100 µM (in vitro; 1. measurement): 7.68%; viability at 0.1 µM (in vitro; 2. measurement): 93.3%; viability at 25 µM (in vitro; 2. measurement): 45%; viability at 75 µM (in vitro; 2. measurement): 34%; viability at 100 µM (in vitro; 2. measurement): 15.7%; viability at 0.1 µM (in vitro; 3. measurement): 79.8%; viability at 25 µM (in vitro; 3. measurement): 47.6%; viability at 75 µM (in vitro; 3. measurement): 18.3%; viability at 100 µM (in vitro; 3. measurement): 11.4% |
| COc1ccc2cc3[n+](cc2c1OCc1ccc(Cl)cc1)CCc1cc2c(cc1-3)OCO2 [16i, 9-O-(4-chlorbenzyl)berberine chloride] | 6.25 µg/mL | 15.9 µM | 14.7 µM | 18 µM | 16.2 ± 1.67 µM | 2.73 | 101% | 82.3% | 55.3% | 93.6% | 78% | 56% | 3.4% | 100% | 82.3% | 61.1% | 2.8% | 1.56 µg/mL | 3.12 µg/mL | 1.56 µg/mL | MIC [1, 8]: 3.12 µg/mL; MIC [1, 9]: 5.93 µM; viability at 0.1 µM (in vitro; 1. measurement): 96.1%; viability at 20 µM (in vitro; 1. measurement): 48.5%; viability at 30 µM (in vitro; 1. measurement): 42.3%; viability at 40 µM (in vitro; 1. measurement): 24.7%; viability at 50 µM (in vitro; 1. measurement): 4.45%; viability at 0.1 µM (in vitro; 2. measurement): 91.6%; viability at 20 µM (in vitro; 2. measurement): 48.4%; viability at 30 µM (in vitro; 2. measurement): 40%; viability at 40 µM (in vitro; 2. measurement): 21.4%; viability at 0.1 µM (in vitro; 3. measurement): 98.2%; viability at 20 µM (in vitro; 3. measurement): 54.6%; viability at 30 µM (in vitro; 3. measurement): 45%; viability at 40 µM (in vitro; 3. measurement): 25.8% |
